From patent publication US8987338B2, “Active ingredient of a medicinal agent, a medicinal agent, a pharmaceutical composition and method for treating dementia syndrome patients” (priority 2007, dated 2015) come the findings set out here.

Each structure is given as a SMILES string.

In assay [1] the test system is patients with Parkinson's syndrome. In words: Clinical trial: unified scale for evaluation of Parkinsonism. The class given is in vivo, human. The note with it: 3 months of treatment. As for the experimental part: The efficacy of the treatment of Alzheimer-type dementias with marked intellectual-mnestic memory loss with polyprenols of formula (1) and a comparison of the efficacy of Ropren and Gliatilin was studied in patients during a 3-month course of treatment. Treatment efficacy on various functions before and after the treatment was assessed using the international scale MMSE ((evaluation of mental status—Mini-Mental State Examination, MMSE) Folstcin et al, 1975), “list with symptoms” questionnaire, unified scale for evaluation of Parkinsonism, EEG data, and biochemical parameters of the blood.
After treatment with Ropren, the Parkinson's syndrome decreased (on average by 5 points) in almost all patients, i.e., in 23 out of 25 patients or in 92%. This positive effect was found as early as 1 month after commencement of Ropren therapy. In the case of Gliatilin, improvement of Parkinson's syndrome was less pronounced (on average by 3 points) using the Parkinsonism rating scale.

For assay [2], the system named is patients with vascular dementia of the Alzheimer's type. The experiment in a line: Clinical trial: electroencephalography (EEG) before and after therapy. Type of assay: in vivo, human. To be noted: before vs after treatment (about 3 months), individual patients or group.
Procedure: MMSE scale (parameter of evaluation of intellectually-mnestic functions of a patient before and after treatment) was used for the evaluation of intellect. […] Electroencephalography (EEG) was performed in 12 patients (48%) before and after the Ropren therapy.

On to `C[N+](C)(C)CCOP(=O)([O-])OC[C@H](O)CO` [Gliatilin, choline alfoscerate], for which the “average decrease of Parkinson's syndrome on Parkinsonism rating scale” value in assay [1] was found to be 3 points. For the same compound, the “Changes in EEG” value in assay [2] is “No changes”.
